This note sets out measurements from publication PMC9036659, “Boron-containing capsaicinoids” (RSC Advances, 2021).

The structures appear in SMILES notation.

The test system of data set [1] is human breast adenocarcinoma cells (ATCC HTB-26 MDA-MB 231). Description: Cytotoxicity assay (Alamar blue), HTB-26. Type of data set: cell-based. The following applies: for IC50: Homo sapiens, HTB26, 72 h incubation, average ± SD, Inactive = inhibition above 300 μM, read-out: IC50 HTB (cancer cell line). On the procedure:
(§1) The cells (human foreskin BJ fibroblast cells (ATCC CRL-2522), green monkey kidney cells Vero (ATCC CCL-81), human breast adenocarcinoma cells (ATCC HTB-26 MDA-MB 231), human breast adenocarcinoma cells (MCF7 ATCC HTB-22), and human colorectal carcinoma cells (HCT116 ATCC CCL-247)) were grown to 80% confluency, the cells were counted, diluted, and plated into treated 96-well cell culture plates. The BJ fibroblast and Vero cells were plated at a cell density of 10 000 cells per well and the HTB26, HCT116 and MCF7 cells were plated at cell density of 5000 cells per well in 90 μL of respective growth medium (without the addition of antibiotics) and incubated for 24 h to allow cells to adhere to the plates before treatment. Pure compounds were tested in triplicate in serial dilutions of seven concentrations ranging from 2 to 128 μg mL^−1 per well (final well volume of 100 μL, 1% DMSO per well). Each of the cell lines were incubated at 37 °C in a humidified atmosphere of 5% CO2; the BJ fibroblast and Vero cells for 24 h and the HTB-26, HCT116 and MCF7 cells for 72 h. Each plate contained four uninoculated positive controls, four untreated negative controls, and one column containing a concentration range for doxorubicin. Alamar blue was added, 24 h after the treatment, and fluorescence was monitored using a Cytation Gen 5 plate reader using 560 nm Ex/590 Em both at time zero and 4 h after Alamar blue addition. The inferred percentage of cell viability relative to vehicle control wells were calculated after subtracting the time zero emission 590 nm measurement from the final reading and the IC50 was determined. […]
(§2) Cytotoxicity Assay Data Alamar blue was added, 24 h after the treatment, and fluorescence was monitored using a Cytation Gen 5 plate reader using 560 nm Ex/590 Em both at time zero and 4 h after Alamar blue addition. The inferred percentage of cell viability relative to vehicle control wells were calculated after subtracting the time zero emission 590 nm measurement from the final reading and the IC50 was determined.

Data set [2] deals with methicillin-resistant Staphylococcus aureus MRSA 310. Description: Antimicrobial assay, MRSA (PrestoBlue fluorescence). The format is cell-based. On the procedure: (§3) The microorganisms (methicillin-resistant S. aureus MRSA 310, vancomycin-resistant E. faecium VRE 379, S. warneri (ATCC 17917), P. vulgaris (ATCC 12454), P. aeruginosa (ATCC 14210), and C. albicans (ATCC 14035)) were grown overnight on agar media. The following day the cultures were transferred into 0.9% saline water into a sterile glass tube. Using the McFarland reader, the turbidity was determined and further diluted into their respective media. The pure compounds were tested at seven different concentrations ranging from 2 to 128 μg mL^−1 in triplicate. Samples were plated into 96 well plates (10 μL in 20% DMSO) and then diluted pathogen (90 μL) was pipetted into the pre-prepared sample plates yielding 5 × 10^5 cfu mL^−1 with a final volume of 100 μL. Antibiotics that are active against specific pathogens were used as positive controls. The plates were incubated into a 37 °C incubator for 22 h. Growth of S. warneri. P. vulgaris, P. aeruginosa and C. albicans were measured by reading optical density (OD600), or in the case of slow growing microorganisms (MRSA and VRE), PrestoBlue was used to assess metabolic activity by measuring fluorescence (535–560)/(590–615) (excitation/emission) using a Thermo Scientific Varioskan Flash plate reader at time zero and then again after incubation of the plates for 22 h at 37 °C. After subtracting the time zero OD600 from the final reading, the percentages of microorganism survival relative to vehicle control wells were calculated. […]
(§4) Antimicrobial Assay Data Growth of S. warneri. P. vulgaris, P. aeruginosa and C. albicans were measured by reading optical density (OD600), or in the case of slow growing microorganisms (MRSA and VRE), PrestoBlue was used to assess metabolic activity by measuring fluorescence (535-560)⁄(590-615) (excitation/emission) using a Thermo Scientific Varioskan Flash plate reader at time zero and then again after incubation of the plates for 22 h at 37 °C. After subtracting the time zero OD600 from the final reading, the percentages of microorganism survival relative to vehicle control wells were calculated. […]

Data set [3] concerns human foreskin BJ fibroblast cells (ATCC CRL-2522). Description: Cytotoxicity assay (Alamar blue), BJ. The format is cell-based. How it is done: as §1, §2
In general terms: Alamar Blue is a resazurin reagent that responds to reducing activity.

Data set [4] relates to Staphylococcus warneri (ATCC 17917). Description: Antimicrobial assay, S. warneri (OD600). Type of data set: cell-based. On the procedure: as §3, §4
Data set [5] deals with Candida albicans (ATCC 14035). Description: Antimicrobial assay, C. albicans (OD600). Type of data set: cell-based. How it is done:
as §3, §4

The subject of data set [6] is Pseudomonas aeruginosa (ATCC 14210). Description: Antimicrobial assay, P. aeruginosa (OD600). Type of data set: cell-based. How it is done:
as §3, §4

Data set [7] concerns vancomycin-resistant Enterococcus faecium VRE 379. Description: Antimicrobial assay, VRE (PrestoBlue fluorescence). The format is cell-based. How it is done:
as §3, §4

Data set [8] relates to green monkey kidney cells Vero (ATCC CCL-81). Description: Cytotoxicity assay (Alamar blue), Vero. The format is cell-based. On the procedure: as §1, §2
The test system of data set [9] is human breast adenocarcinoma cells (MCF7 ATCC HTB-22). Put plainly: Cytotoxicity assay (Alamar blue), MCF7. The format is cell-based. How it is done:
as §1, §2

The test system of data set [10] is Proteus vulgaris (ATCC 12454). Put plainly: Antimicrobial assay, P. vulgaris (OD600). Type of data set: cell-based. On the procedure:
as §3, §4

The test system of data set [11] is human colorectal carcinoma cells (HCT116 ATCC CCL-247). Description: Cytotoxicity assay (Alamar blue), HCT116. The format is cell-based. As to conditions: for IC50: Homo sapiens, HCT-116, 72 h incubation, average ± SD, Inactive = inhibition above 300 μM, read-out: IC50 HCT (cancer cell line). On the procedure: as §1, §2
[12] abbreviates: 24 h incubation, average ± SD, Inactive = inhibition above 300 μM.

As for `CCCCCC(=O)N(Cc1ccc(OC)c(OC)c1)c1ccc(B2OC(C)(C)C(C)(C)O2)cc1` [Compound 23, N-(3,4-dimethoxyphenylmethyl)-N-[4-(4,4,5,5-tetramethyl-1,3,2-dioxaborolan-2-yl)phenyl]-hexanamide], the melting point fell in the range of 51.5 to 53.5 °C. Moreover, in [1], the “cytotoxic activity against HTB-26 MDA-MB 231 (in words)” value is “selective but low to moderate activity” and the IC50 turned out to be 85.8 ± 7.1 µM. Further, the “antimicrobial activity against MRSA (in words)” value in data set [2] is “inactive”. Moreover, the “IC50 BJ (normal cell line)” value in [3] (setting [12]) was “Inactive”. Further, the “antimicrobial activity against S. warneri (in words)” value in data set [4] was “inactive”. For the same compound, the “antimicrobial activity against C. albicans (in words)” value in data set [5] was “inactive”. For the same compound, in data set [6], the “antimicrobial activity against P. aeruginosa (in words)” value is “inactive”. In addition, the “antimicrobial activity against VRE (in words)” value in data set [7] is “inactive”. In addition, the “IC50 Vero (normal cell line)” value in [8] (setting [12]) is listed as “Inactive”. Besides, in [9], the “cytotoxic activity against MCF7 (in words)” value is “selective but low to moderate activity”. Further, the “IC50 MCF7 (cancer cell line)” value in data set [9] (72 h incubation, average ± SD, Inactive = inhibition above 300 μM) is on record as “Inactive”. Moreover, in [10], the “antimicrobial activity against P. vulgaris (in words)” value is “inactive”. In addition, in [11], the “cytotoxic activity against HCT116 (in words)” value was “selective but low to moderate activity” and the IC50 was determined as 118 ± 4.9 µM.

`CCCCCCCCCC(=O)N(Cc1ccc(OC)c(OC)c1)c1ccc(B2OC(C)(C)C(C)(C)O2)cc1` [Compound 24, N-(3,4-dimethoxyphenylmethyl)-N-[4-(4,4,5,5-tetramethyl-1,3,2-dioxaborolan-2-yl)phenyl]-decanamide] returned a melting point of 58.1 to 59.8 °C. Also, in data set [1], the “cytotoxic activity against HTB-26 MDA-MB 231 (in words)” value is given as “unselective cytotoxic effects” and the IC50 stood at 25.2 ± 1.3 µM. Further, in data set [2], the “antimicrobial activity against MRSA (in words)” value was “inactive”. The “cytotoxic activity against BJ (in words)” value in [3] is “unselective cytotoxic effects”. The IC50 in data set [3] (Homo sapiens, Fibroblast, 24 h incubation, average ± SD, Inactive = inhibition above 300 μM, read-out: IC50 BJ (normal cell line)) was 36.1 ± 0.8 µM. Besides, the “antimicrobial activity against S. warneri (in words)” value in data set [4] was “inactive”. Also, the “antimicrobial activity against C. albicans (in words)” value in [5] was “inactive”. Besides, the “antimicrobial activity against P. aeruginosa (in words)” value in [6] was “inactive”. Besides, the “antimicrobial activity against VRE (in words)” value in data set [7] is “inactive”. Besides, the “cytotoxic activity against Vero (in words)” value in [8] is on record as “unselective cytotoxic effects”. Also, in data set [8] (Chlorocebus sabaeus, Vero, 24 h incubation, average ± SD, Inactive = inhibition above 300 μM, read-out: IC50 Vero (normal cell line)), the IC50 came to 26.9 ± 4.4 µM. The “cytotoxic activity against MCF7 (in words)” value in data set [9] was “unselective cytotoxic effects”. Further, in data set [9] (Homo sapiens, MCF7, 72 h incubation, average ± SD, Inactive = inhibition above 300 μM, read-out: IC50 MCF7 (cancer cell line)), the IC50 worked out at 24.1 ± 3.8 µM. Moreover, in data set [10], the “antimicrobial activity against P. vulgaris (in words)” value is “inactive”. Further, in data set [11], the “cytotoxic activity against HCT116 (in words)” value is “unselective cytotoxic effects” and the IC50 was 33.8 ± 2.1 µM.

One may read the IC50 as the point on the concentration scale where inhibition reaches its midpoint. The melting point is the temperature, or range, at which the solid turns liquid.
